From patent US20240156852A1, “CARBON NANOPARTICLE COMPOSITIONS AND METHODS FOR DELIVERING THERAPEUTICS TO SPECIFIC TARGET SITES” (SINON NANO SCIENCES INC., priority 2021, published 2024)

Settings: male, Wistar, rat, in vivo, po
Protocol: Wistar rats (male, 200-220 g) were obtained from the CPCSEA registered animal vendor. Animals were maintained at temperature of 23±2° C., relative humidity of 30% to 70%, and a 12 h dark-light cycle. All of the animals had free access to water and rodent chow at all times, and all of the experimental animals were fed under the above conditions throughout the acclimatization period. Wistar rats (n=1, Male) were randomly taken for each of the two groups. […] All the rats were fasted for 12 hr before administration. The blood collection was done from retro-orbital plexus using an anticoagulant-coated capillary tube at 0 (pre-dose), 0.25, 0.5, 1, 2, 4, 6, 8, and 24 hr respectively following oral administration from both the rats (Group 1 and 2). At each time point, blood sample (125 μL) was collected in EDTA tubes and tubes were immediately centrifuged at 3000 rpm for 10 min to obtain the plasma. The separated plasma was frozen at −20° C. before analysis.
The biological samples were thawed at room temperature. After vortexing for 30 seconds, 100 μL of sample was taken into 1.5 mL eppendorf tubes, 600 μL of ice-cold acetonitrile was added to denature the proteins. The tubes were vortexed for 2 minutes followed by centrifugation at 5000 rpm for 10 minutes. […]

plasma concentrations (below quantitation limits): < 31.2 ng/mL
Compound: CC(=O)O[C@H]1C(=O)[C@@]2(C)[C@H]([C@H](OC(=O)c3ccccc3)[C@]3(O)C[C@H](OC(=O)[C@H](O)[C@@H](NC(=O)c4ccccc4)c4ccccc4)C(C)=C1C3(C)C)[C@]1(OC(C)=O)CO[C@@H]1C[C@@H]2O [Paclitaxel]
